Source: ChEMBL document CHEMBL4382258, “Design and Optimization of Sulfone Pyrrolidine Sulfonamide Antagonists of Transient Receptor Potential Vanilloid-4 with in Vivo Activity in a Pulmonary Edema Model” (J Med Chem, 2018)

Experiments:
[1] = Permeability of the compound by PAMPA; format: ADME; conditions: read-out: permeability
[2] = Dose normalized AUC (0 to t) in rat at 98 mg/kg, po; format: ADME, organism-based; conditions: in vivo
TRPC3/TRPC6 = target: T1, TRPC3/TRPC6 (Homo sapiens, UniProt Q13507+Q9Y210); assay: Antagonist activity at TRPC3/TRPC6 (unknown origin); format: protein-complex assay
T1 sequence (Q9Y210 whole entry): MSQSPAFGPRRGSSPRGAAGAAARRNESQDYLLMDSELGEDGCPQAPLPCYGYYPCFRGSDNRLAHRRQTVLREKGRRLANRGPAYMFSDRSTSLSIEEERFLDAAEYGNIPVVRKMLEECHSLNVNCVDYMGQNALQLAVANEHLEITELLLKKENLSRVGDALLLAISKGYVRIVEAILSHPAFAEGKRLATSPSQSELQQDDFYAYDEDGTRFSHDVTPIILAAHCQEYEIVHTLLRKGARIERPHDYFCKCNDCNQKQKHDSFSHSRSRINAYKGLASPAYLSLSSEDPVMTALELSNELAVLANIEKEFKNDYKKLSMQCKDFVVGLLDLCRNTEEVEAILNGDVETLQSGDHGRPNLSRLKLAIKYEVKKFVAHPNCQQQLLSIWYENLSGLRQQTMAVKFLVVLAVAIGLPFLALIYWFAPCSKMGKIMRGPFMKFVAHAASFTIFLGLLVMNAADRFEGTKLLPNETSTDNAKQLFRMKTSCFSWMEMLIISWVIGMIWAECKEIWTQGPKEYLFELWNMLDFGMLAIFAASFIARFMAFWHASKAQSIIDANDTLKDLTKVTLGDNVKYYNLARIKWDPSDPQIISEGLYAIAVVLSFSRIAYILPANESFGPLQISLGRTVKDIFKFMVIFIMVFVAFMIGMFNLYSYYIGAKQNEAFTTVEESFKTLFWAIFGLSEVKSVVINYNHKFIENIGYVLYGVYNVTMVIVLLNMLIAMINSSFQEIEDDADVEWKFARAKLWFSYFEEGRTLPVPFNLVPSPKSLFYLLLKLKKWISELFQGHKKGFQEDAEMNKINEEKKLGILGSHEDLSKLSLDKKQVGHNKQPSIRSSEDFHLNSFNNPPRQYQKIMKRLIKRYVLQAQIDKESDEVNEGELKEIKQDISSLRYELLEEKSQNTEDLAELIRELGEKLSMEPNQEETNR
T1 sequence (Q13507 whole entry): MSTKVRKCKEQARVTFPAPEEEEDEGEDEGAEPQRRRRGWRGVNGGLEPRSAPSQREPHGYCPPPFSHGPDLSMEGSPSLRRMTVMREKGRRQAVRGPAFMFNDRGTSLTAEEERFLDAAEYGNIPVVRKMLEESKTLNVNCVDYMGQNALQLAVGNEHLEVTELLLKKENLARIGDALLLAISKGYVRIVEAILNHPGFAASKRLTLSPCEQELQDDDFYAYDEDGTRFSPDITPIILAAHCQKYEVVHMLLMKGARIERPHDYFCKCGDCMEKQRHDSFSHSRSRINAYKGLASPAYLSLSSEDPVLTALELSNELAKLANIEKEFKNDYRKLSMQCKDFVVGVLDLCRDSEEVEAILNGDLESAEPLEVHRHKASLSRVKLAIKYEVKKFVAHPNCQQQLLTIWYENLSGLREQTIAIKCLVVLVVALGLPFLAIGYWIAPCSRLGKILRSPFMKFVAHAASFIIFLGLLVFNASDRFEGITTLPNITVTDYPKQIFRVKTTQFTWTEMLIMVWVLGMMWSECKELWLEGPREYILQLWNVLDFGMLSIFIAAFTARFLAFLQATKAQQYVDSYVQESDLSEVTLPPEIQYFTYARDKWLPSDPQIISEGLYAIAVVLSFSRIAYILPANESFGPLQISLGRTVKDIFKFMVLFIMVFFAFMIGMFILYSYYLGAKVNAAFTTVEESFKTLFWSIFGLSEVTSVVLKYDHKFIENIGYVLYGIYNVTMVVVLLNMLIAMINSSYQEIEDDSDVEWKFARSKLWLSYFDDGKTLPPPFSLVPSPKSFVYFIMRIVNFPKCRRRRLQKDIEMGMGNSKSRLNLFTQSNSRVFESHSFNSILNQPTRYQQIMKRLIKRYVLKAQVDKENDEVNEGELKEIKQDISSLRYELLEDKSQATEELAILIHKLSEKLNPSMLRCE

[3] = Dose normalized AUC (0 to t) in dog at 30 mg/kg, po; format: ADME, organism-based, Canis lupus familiaris; conditions: in vivo

Papp [1]: 35 ×10⁻⁶ cm/s
AUCt/dose [2]: 0.4 kg·h/L
IC50 (TRPC3/TRPC6): > 30 µM
AUCt/dose [3]: 3 kg·h/L
Compound: N#Cc1ccc(S(=O)(=O)N2C[C@H](S(=O)(=O)c3ccc(Cl)cc3)[C@](O)(CO)C2)c(Cl)c1
